From patent publication US20090221598A1, “Use of Sanglifehrin in HCV” (priority 2005, published 2009)

How the values were obtained:
FK binding protein = assay: Standard test for FK binding protein binding activity; settings: standard tests
[1] = test system: human monocytic cell line THP1; assay: Cytotoxicity, MTT read-out; type: cell-based
Protocol: Cytotoxicity is determined using the human monocytic cell line THP1 (5×10^4 cells/well) which are incubated in the presence of IFNgamma (100 U/ml) and LPS (5 microgram/ml) plus test compound (up to 10 micromolar) for 24 to 72 h at 37° C. Living cells are quantified using the colourimetric read-out MTT which measures mitochondrial dehydrogenase enzymatic activity in living cells (Mossman 1983). Macrolides of the invention, e.g. compounds of formula IX and their pharmaceutically acceptable salts, e.g. Sanglifehrins A, B, C and D, have IC50 of about 1000-5000 nM after 24 h incubation in this assay. (Mossman T. J. (1983), Rapid calorimetric assay for cellular growth and survival: application to proliferation and cytotoxic assays, J. Imm. Methods, 65, 55-63).

calcineurin = assay: Standard test for calcineurin activity; type: biochemical; settings: standard tests

| Substance | FK binding protein binding activity (FK binding protein) | IC50 [1] [nM] | inhibition of calcineurin activity (calcineurin) |
| --- | --- | --- | --- |
| Sanglifehrin B | do not have FK binding protein binding activity | 1000 to 5000 | do not inhibit calcineurin activity |
| Sanglifehrin A | do not have FK binding protein binding activity | – | do not inhibit calcineurin activity |
